Legend:
Test in all cases: relative viability (nuclei count vs DMSO), 5 days (fraction); higher = more cells survive
[1] = compound: COc1cc2c(Oc3ccc4[nH]c(C)cc4c3F)ncnc2cc1OCCCN1CCCC1 [Cediranib]
Summary of the method: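 After an overnight hold at 37 °C, lung cancer cell lines in 1536-well plates were pinned with five library-drug doses (not always all listed), each √10 from the next, on vehicle-anchored plates. The cells stayed 5 days without fresh medium, then a one-step fix, permeabilisation and Hoechst stain preceded 4× imaging and MetaXpress nuclear counts. A plate passed only with control CV under 25% and at least one doubling. Viability is the median, over plates, of treated-well nuclei relative to vehicle-well nuclei.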

[2] = compound: COc1cc2c(Oc3ccc4[nH]c(C)cc4c3F)ncnc2cc1OCCCN1CCCC1 [Cediranib] + O=C(c1cc(Cc2n[nH]c(=O)c3ccccc23)ccc1F)N1CCN(C(=O)C2CC2)CC1 [Olaparib] (partner 8 µM)
Summary of the method: (§1)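 Each reported value is a median over duplicate plates. It expresses relative viability: treated-well nuclei count divided by vehicle-well nuclei count. Lung cancer cell lines in 1536-well plates were dosed by pin tool a day after seeding, alone with one drug or with a fixed anchor-drug dose plus five library-drug doses (not always all listed) in √10 steps, and nuclei were counted after 5 days.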

[3] = compound: O=C(C[C@H]1NCCC[C@@H]1O)Cn1cnc2cc(Br)c(Cl)cc2c1=O (racemic) [Halofuginone] + CS(=O)(=O)N1CCN(Cc2cc3nc(-c4cccc5[nH]ncc45)nc(N4CCOCC4)c3s2)CC1 [Pictilisib] (partner 1 µM)
Summary of the method: as §1

[4] = compound: O=C(C[C@H]1NCCC[C@@H]1O)Cn1cnc2cc(Br)c(Cl)cc2c1=O (racemic) [Halofuginone] + Cc1cc(Nc2cc(N3CCN(C)CC3)nc(Sc3ccc(NC(=O)C4CC4)cc3)n2)n[nH]1 [Tozasertib] (partner 0.1 µM)
Summary of the method: as §1

Cell Line	relative viability ([1]; 0.04 µM)	relative viability ([1]; 0.1265 µM)	relative viability ([1]; 0.4 µM)	relative viability ([1]; 1.265 µM)	relative viability ([1]; 4 µM)	relative viability ([2]; first compound 0.04 µM)	relative viability ([2]; first compound 0.1265 µM)	relative viability ([2]; first compound 0.4 µM)	relative viability ([2]; first compound 1.265 µM)	relative viability ([2]; first compound 4 µM)	relative viability ([3]; first compound 0.001 µM)	relative viability ([3]; first compound 0.003162 µM)	relative viability ([3]; first compound 0.01 µM)	relative viability ([3]; first compound 0.03162 µM)	relative viability ([3]; first compound 0.1 µM)	relative viability ([4]; first compound 0.001 µM)	relative viability ([4]; first compound 0.003162 µM)	relative viability ([4]; first compound 0.01 µM)	relative viability ([4]; first compound 0.03162 µM)	relative viability ([4]; first compound 0.1 µM)
NCI-H1395	0.885	0.832	0.887	0.884	0.993	0.472	0.448	0.474	0.541	0.42	0.625	0.674	0.86	0.578	0.54	0.893	0.72	0.797	0.769	0.656
NCI-H1437	1.08	0.969	0.998	0.972	1.06	0.662	0.614	0.615	0.599	0.627	0.429	0.536	0.414	0.402	0.24	0.407	0.387	0.425	0.393	0.399
NCI-H1650	1	0.962	0.833	0.8	0.822	0.825	0.801	0.771	0.707	0.845	0.28	0.658	0.469	0.495	0.136	0.559	0.384	0.357	0.29	0.192
NCI-H1651	0.977	0.963	0.96	0.951	0.999	0.189	0.18	0.179	0.166	0.185	0.677	0.586	0.548	0.522	0.243	1.03	0.773	0.702	0.471	0.352
NCI-H1666	1.02	1.18	0.989	1.01	1.02	0.737	0.716	0.719	0.696	0.726	0.483	0.357	0.443	0.406	0.323	0.656	0.644	0.56	0.596	0.704
NCI-H1734	0.897	0.951	0.96	0.821	1.09	0.683	0.623	0.59	0.676	0.764	0.46	0.492	0.403	0.449	0.327	0.226	0.267	0.278	0.291	0.251
NCI-H1755	1.1	0.861	0.954	1.05	1.01	0.918	0.791	0.867	0.836	0.955	0.478	0.468	0.445	0.493	0.287	0.591	0.569	0.567	0.591	0.461

From the supplement of paper PMC10307832
